Legend:
Format in all cases: in vivo
[1] = tested on: apple trees with mature apples of the Cripps Pink variety; experiment: Fruit drop in Cripps Pink variety
Description: AVG and/or ACC were applied to apple trees with mature apples of the Cripps Pink variety, wherein each set of trees were foliar sprayed with either 1) 0.05% Regulaid® as a control, 2) 125 ppm ACC, 3) 250 ppm ACC, 4) 500 ppm ACC, 5) 125 ppm AVG, 6) 125 ppm ACC and 125 ppm AVG, 7) 250 ppm ACC and 125 ppm AVG or 8) 500 ppm ACC and 125 ppm AVG.

[2] = tested on: apples, Cripps Pink variety; experiment: Apple characteristics in Cripps Pink variety (red pixel area, ground color, firmness, starch conversion, brix); design: Ground Color / Starch: scale not given here; Firmness: unit not given here; details: 34 hours post spray; for Average % Red Pixel Area: shaded; for Starch: starch conversion
Description: (§1) 10 sets of unripened apples, Cripps Pink variety, harvested three weeks before the normal harvest date, were each foliar sprayed with either 1) 0.05% Regulaid® as a control, 2) 125 ppm ACC, 3) 250 ppm ACC, 4) 500 ppm ACC, 5) 125 ppm AVG, 6) 125 ppm ACC and 125 ppm AVG, 7) 250 ppm ACC and 125 ppm AVG or 8) 500 ppm ACC and 125 ppm AVG. 34 hours post spray application percent red pixel area (shaded), ground color, fruit firmness, starch conversion and brix were measured.

[3] = tested on: apples, Cripps Pink variety; experiment: Apple coloration in Cripps Pink variety (blush classes); details: 34 hours post spray; for % Cripps Red: apples with a blush from 20% to 40%; for % Pink Lady: apples with a blush of greater than 40%; for % Class 3: apples with a blush of less than 20%
Description: as §1, with “(shaded) was measured. Pink Lady denotes apples with a blush of greater than 40%, Cripps Red denotes apples with a blush from 20% to 40%” for “(shaded), ground color, fruit firmness, starch conversion”, “Class 3 denotes apples with a blush of less than 20%.” for “brix were measured.”

[4] = tested on: apples, Cripps Pink variety; experiment: Apple greasiness in Cripps Pink variety; details: 12 weeks of cold storage and 7 days at room temperature
Description: as §1, with “Following 12 weeks of cold storage” for “34 hours post spray application percent red pixel area (shaded), ground color, fruit firmness, starch conversion”, “7 days at room temperature greasiness was” for “brix were”

[5] = harvest 1, 125 ppm foliar spray
[6] = harvest 2, 125 ppm foliar spray
[7] = harvest 1, 250 ppm foliar spray
[8] = harvest 1, 500 ppm foliar spray
[9] = harvest 2, 250 ppm foliar spray
[10] = harvest 2, 500 ppm foliar spray

NCCO/C=C/[C@H](N)C(=O)O [AVG, ([S]-trans-2-amino-4-(2-aminoethoxy)-3-butenoic acid]
# of Fruit Dropped (Evaluation 1) ([1]; 125 ppm foliar spray to trees): 9.7 c
# of Fruit Dropped (Evaluation 2) ([1]; 125 ppm foliar spray to trees): 7.4 c
Total # of Fruit Dropped ([1]; 125 ppm foliar spray to trees): 20.8 c
Brix ([2]; 125 ppm foliar spray): 12.33
Firmness ([2]; 125 ppm foliar spray): 8.62
Ground Color ([2]; 125 ppm foliar spray): 2.93
Average % Red Pixel Area ([2]; 125 ppm foliar spray): 6.3%
Starch ([2]; 125 ppm foliar spray): 25.9
% Cripps Red ([3]; 125 ppm foliar spray): 21.5%
% Pink Lady ([3]; 125 ppm foliar spray): 69.5%
% Class 3 ([3]; 125 ppm foliar spray): 9%
Percent Fruit with Moderate Greasiness [4, 5]: 1%
Percent Fruit with No Greasiness [4, 5]: 94%
Percent Fruit with Severe Greasiness [4, 5]: 0%
Percent Fruit with Slight Greasiness [4, 5]: 5%
Percent Fruit with Moderate Greasiness [4, 6]: 49%
Percent Fruit with No Greasiness [4, 6]: 22%
Percent Fruit with Severe Greasiness [4, 6]: 2%
Percent Fruit with Slight Greasiness [4, 6]: 27%

NC1(C(=O)O)CC1 [ACC, 1-amino-1-cyclopropanecarboxylic acid]
# of Fruit Dropped (Evaluation 1) ([1]; 125 ppm foliar spray to trees): 11.3 c
# of Fruit Dropped (Evaluation 2) ([1]; 125 ppm foliar spray to trees): 10.4 bc
Total # of Fruit Dropped ([1]; 125 ppm foliar spray to trees): 26.3 c
# of Fruit Dropped (Evaluation 1) ([1]; 250 ppm foliar spray to trees): 15.2 c
# of Fruit Dropped (Evaluation 2) ([1]; 250 ppm foliar spray to trees): 16.4 b
Total # of Fruit Dropped ([1]; 250 ppm foliar spray to trees): 35.2 bc
# of Fruit Dropped (Evaluation 1) ([1]; 500 ppm foliar spray to trees): 59.7 a
# of Fruit Dropped (Evaluation 2) ([1]; 500 ppm foliar spray to trees): 40.1 a
Total # of Fruit Dropped ([1]; 500 ppm foliar spray to trees): 105.8 a
Brix ([2]; 125 ppm foliar spray): 12.25
Firmness ([2]; 125 ppm foliar spray): 8.61
Ground Color ([2]; 125 ppm foliar spray): 3.01
Average % Red Pixel Area ([2]; 125 ppm foliar spray): 6.9%
Brix ([2]; 250 ppm foliar spray): 12.5
Firmness ([2]; 250 ppm foliar spray): 8.58
Ground Color ([2]; 250 ppm foliar spray): 2.96
Average % Red Pixel Area ([2]; 250 ppm foliar spray): 8%
Brix ([2]; 500 ppm foliar spray): 12.51
Firmness ([2]; 500 ppm foliar spray): 8.4
Ground Color ([2]; 500 ppm foliar spray): 3.04
Average % Red Pixel Area ([2]; 500 ppm foliar spray): 8.7%
Starch ([2]; 125 ppm foliar spray): 40
Starch ([2]; 250 ppm foliar spray): 45.3
Starch ([2]; 500 ppm foliar spray): 56.2
% Cripps Red ([3]; 125 ppm foliar spray): 15%
% Cripps Red ([3]; 250 ppm foliar spray): 11.5%
% Cripps Red ([3]; 500 ppm foliar spray): 9%
% Pink Lady ([3]; 125 ppm foliar spray): 76.5%
% Pink Lady ([3]; 250 ppm foliar spray): 84.5%
% Pink Lady ([3]; 500 ppm foliar spray): 89%
% Class 3 ([3]; 125 ppm foliar spray): 8.5%
% Class 3 ([3]; 250 ppm foliar spray): 4%
% Class 3 ([3]; 500 ppm foliar spray): 2%
Percent Fruit with Moderate Greasiness [4, 5]: 40%
Percent Fruit with No Greasiness [4, 5]: 21%
Percent Fruit with Severe Greasiness [4, 5]: 17%
Percent Fruit with Slight Greasiness [4, 5]: 22%
Percent Fruit with Moderate Greasiness [4, 7]: 40%
Percent Fruit with No Greasiness [4, 7]: 5%
Percent Fruit with Severe Greasiness [4, 7]: 39%
Percent Fruit with Slight Greasiness [4, 7]: 16%
Percent Fruit with Moderate Greasiness [4, 8]: 44%
Percent Fruit with No Greasiness [4, 8]: 1%
Percent Fruit with Severe Greasiness [4, 8]: 48%
Percent Fruit with Slight Greasiness [4, 8]: 7%
Percent Fruit with Moderate Greasiness [4, 6]: 31.1%
Percent Fruit with No Greasiness [4, 6]: 0%
Percent Fruit with Severe Greasiness [4, 6]: 68.9%
Percent Fruit with Slight Greasiness [4, 6]: 0%
Percent Fruit with Moderate Greasiness [4, 9]: 15%
Percent Fruit with No Greasiness [4, 9]: 0%
Percent Fruit with Severe Greasiness [4, 9]: 85%
Percent Fruit with Slight Greasiness [4, 9]: 0%
Percent Fruit with Moderate Greasiness [4, 10]: 19%
Percent Fruit with No Greasiness [4, 10]: 0%
Percent Fruit with Severe Greasiness [4, 10]: 81%
Percent Fruit with Slight Greasiness [4, 10]: 0%

From patent US20250287944A1, “AMINOETHOXYVINYLGLYCINE AND 1-AMINO-1-CYCLOPROPANECARBOXYLIC ACID AND USES THEREOF” (Valent BioSciences LLC, priority 2024, published 2025)
